# Data from publication PMC5708526, “Targeting secondary protein complexes in drug discovery: studying the druggability and chemical biology of the HSP70/BAG1 complex” (Chemical Communications (Cambridge, England), 2017).
# Read-outs that look alike come from different tables or passages of the source.
# How the values were obtained:
# HSP72 [1] = target: T1, HSP72 (Homo sapiens, UniProt P0DMV8); assay: FP competition assay, displacement of bisaryl-ATTO-488 11 from primary HSP72 protein; assay type: binding
# T1 construct: made in house
# Experimental: (§1) To assess what effect the secondary HSP72/BAG1 complex had on the apparent affinity of the non-nucleotide bisaryl-ATTO-488 FP-probe 11, we carried out a similar BAG1 study. […] To confirm that the binding of BAG1 to HSP72 was not mutually exclusive, we screened the nucleotides ADP and ATP in a competition assay with bisaryl-ATTO-488 11 and HSP72 at a 50% bound fraction, with and without a saturating concentration of BAG1 (700 nM) (Fig. S7, ESI ^†). […]
# (§2) TRIS Tris(hydroxymethyl)aminomethane
# (§3) General Information: Unless otherwise stated the aqueous assay buffer contained 50 mM TRIS base pH 7.4, 150 mM NaCl, 6 mM MgCl2, 1 mM DTT, 0.1% (wt/wt) CHAPS. The assay was conducted using 384 Plus F ProxiPlates (PerkinElmer) with a final assay volume of 10 μL. Plates were centrifuged at 1000 rpm for 1 minute prior to incubation and read using an 2103 Envision Multilable Plate Reader. Excitation and emission wavelengths used for green probes were 480 nm and 535 nm, respectively.
# Fluorescence polarisation was measured in units of millipolarization (mP). All experiments were performed in triplicate, unless otherwise stated. Data were plotted and analysed using GraphPad Prism 6, graphical data represents the mean ± standard error of the mean for a single representative experiment. ATP-derived fluorescent probes (1.0 mM in aqueous) were purchased from Jena Bioscience. Human BAG-1M (10.9 μM in 20 mM TRIS base pH 7.4, 100 mM NaCl, 1 mM DTT, 1% (v/v) glycerol) was purchased from Enzo Life Sciences. […]
# Compound IC50 determination: Compounds (0.2 μL at 50 x screening concentration in DMSO) were dispensed using an ECHO 550 Liquid Handler (Labcyte Inc.). To the corresponding wells was added, 5 μL of probe molecule (20 nM in assay buffer) and 5 μL of protein (two times their final concentration in assay buffer) to give a 50% bound fraction. Tracer controls (10 nM probe molecule only) and bound tracer controls (10 nM probe in the presence of appropriate protein concentration) were included on each assay plate. IC50 determination was performed using non-linear least squares curve fitting (GraphPad Prism 6, log(inhibitor) vs. response— variable slope (four parameters)). […]
# (§4) Compound screen with and without BAG-1: Compounds (0.2 μL at 50 x screening concentration in DMSO) were dispensed using an ECHO 550 Liquid Handler (Labcyte Inc.). To the corresponding wells was added, 5 μL of probe molecule (20 nM in assay buffer), 2.5 μL of HSP72 (four times final concentration in assay buffer) and either 2.5 µL of BAG-1 (2.8 µM in 20 mM TRIS base pH 7.4, 100 mM NaCl, 1 mM DTT, 1% (v/v) glycerol) or 2.5 µL of BAG1 replacement buffer (20 mM TRIS base pH 7.4, 100 mM NaCl, 1 mM DTT, 1% (v/v) glycerol). The assay was performed in duplicate. Tracer controls (10 nM probe molecule only) and bound tracer controls (10 nM probe in the presence of appropriate protein concentration) were included on each assay plate.
# IC50 determination was performed using non-linear least squares curve fitting (GraphPad Prism 6, log(inhibitor) vs. response— variable slope (four parameters)).
# Fig. S1. Determination of assay binding window for bisaryl-ATTO-488 and ATP-ATTO-488. Polarisation values (mP) for 2-63 nM ATP-ATTO-488 (red) and bisaryl ATTO-488 (blue) in the presence (▼) and absence (▲) of 5 µM HSP72, ↔ represents the assay window at 10 nM probe concentration. All data points were tested in triplicate and are represented as the arithmetic mean ±
# HSP72/BAG1 complex = target: T2, HSP72/BAG1 complex (Homo sapiens, UniProt P0DMV8); assay: FP competition assay, displacement of bisaryl-ATTO-488 11 from secondary HSP72/BAG1 complex; assay type: binding; conditions: for change in affinity for HSP72/BAG1 complex compared to primary protein: 700 nM BAG1
# T2 construct: purchased Enzo Life Sciences (BAG-1M only)
# Experimental: as §1, §4
# IC50 determination was performed using non-linear least squares curve fitting (GraphPad Prism 6, log(inhibitor) vs. response— variable slope (four parameters)). […]
# Fig. S8. Representative competitive binding curves for ADP (A), ATP (B), compound 12 (C) and compound 13 (D) in the presence and absence of BAG1. Competition experiments in the presence of BAG1 (red) were performed using 10 nM biaryl-ATTO-488, 700 nM BAG1 and 140 nM HSP70 to give a 50% bound fraction. Competition experiments in the absence of BAG1 (blue) were performed using 10 nM biaryl-ATTO-488 and 180 nM HSP70 to give a 50% bound fraction. IC50 determination was performed using non-linear regression analysis (log(inhibitor) vs. response - Variable slope (four parameters)), all data points were tested in duplicate and are represented as the arithmetic mean ± SEM.
# HSP72 [2] = target: T1, HSP72; assay: FP assay binding window and Z' determination
# Description: As a result, the assay was not statistically robust, so could not be used in competition experiments (Z′ = 0.36).[11],[20],[21] We hypothesised that the high lipophilicity of 10 (clog P = 6.9) was causing the small binding window, either due to aggregation, even at very low concentrations, or its large hydrate volume.[22] Because the lipophilicity of the specific-ligand portion of the probe was fixed by the need for high affinity to the HSP70 target, we focused on changes to the solvent exposed fluorophore. ATTO-488, a green-shifted fluorophore that contains two sulfonic acid groups, was selected as an alternative to fluorescein (see ESI ^†), as this reduced the clog P of the bisaryl probe 11 to –3.9.[21] The binding window of ATTO-488 bisaryl FP-probe 11 measured at a fixed and apparently saturating concentration of HSP72 (5 μM), was now greater than 150 mP (Z′ = 0.63, Fig. 3A and Fig. S1, ESI ^†). […]
# as §2, §3
# Fluorescence polarisation was measured in units of millipolarization (mP). All experiments were performed in triplicate, unless otherwise stated. Data were plotted and analysed using GraphPad Prism 6, graphical data represents the mean ± standard error of the mean for a single representative experiment. ATP-derived fluorescent probes (1.0 mM in aqueous) were purchased from Jena Bioscience. Human BAG-1M (10.9 μM in 20 mM TRIS base pH 7.4, 100 mM NaCl, 1 mM DTT, 1% (v/v) glycerol) was purchased from Enzo Life Sciences.
# Determination of optimal probe concentration: To each well, 5 μL of HSP72 (10 µM in assay buffer) or 5 μL assay buffer and increasing concentrations of probe (5 μL, two-fold dilution series) were added. Fluorescence polarisation values for the tracer ± protein were plotted using GraphPad prism 6. […]
# Z’ determination: To each well, 5 µL of probe (20 nM in assay buffer) and either 5 µL of HSP70 (in assay buffer) or 5 µL of assay buffer were added. Fluorescent polarisation values from 96 wells were used to calculate the mean and standard deviation for each data set. Z’-factors were calculated using the equation given below (sample refers to probe in the absence of protein and control refers to probe in the presence of protein). […]
# HSP72-NBD = target: HSP72-NBD; parameters: method as in PMID 19256508; conditions: reported affinity for HSP72-NBD by surface-plasmon resonance; cited from earlier work
# [3] = 180 nM HSP72, 10 nM probe 11, BAG1 buffer, 16 h incubation, geometric mean of at least 3 experiments, read-out: IC50 –BAG1
# [4] = 700 nM BAG1, 140 nM HSP72, 10 nM probe 11, 16 h incubation, geometric mean of at least 3 experiments, read-out: IC50 +BAG1
# T1 sequence (P0DMV8 whole entry): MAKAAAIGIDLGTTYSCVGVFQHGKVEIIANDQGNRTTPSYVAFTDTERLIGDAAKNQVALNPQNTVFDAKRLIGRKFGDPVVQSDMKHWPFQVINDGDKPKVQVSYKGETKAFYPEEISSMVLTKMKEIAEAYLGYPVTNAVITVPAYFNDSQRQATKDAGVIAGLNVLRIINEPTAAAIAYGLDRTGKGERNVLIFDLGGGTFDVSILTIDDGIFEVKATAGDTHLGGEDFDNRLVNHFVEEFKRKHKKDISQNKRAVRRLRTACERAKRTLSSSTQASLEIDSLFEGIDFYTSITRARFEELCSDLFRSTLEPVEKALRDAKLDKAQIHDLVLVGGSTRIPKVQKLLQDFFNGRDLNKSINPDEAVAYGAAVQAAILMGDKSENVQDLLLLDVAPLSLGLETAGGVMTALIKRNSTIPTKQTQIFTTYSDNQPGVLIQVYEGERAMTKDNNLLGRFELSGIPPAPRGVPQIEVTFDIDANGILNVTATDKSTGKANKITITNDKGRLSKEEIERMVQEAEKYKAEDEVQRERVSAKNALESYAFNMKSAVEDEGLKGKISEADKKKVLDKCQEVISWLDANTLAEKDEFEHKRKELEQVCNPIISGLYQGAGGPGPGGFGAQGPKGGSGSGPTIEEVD
# T2 sequence (P0DMV8 whole entry): as above
# T2 sequence (Q99933 72-345 partner limits assumed): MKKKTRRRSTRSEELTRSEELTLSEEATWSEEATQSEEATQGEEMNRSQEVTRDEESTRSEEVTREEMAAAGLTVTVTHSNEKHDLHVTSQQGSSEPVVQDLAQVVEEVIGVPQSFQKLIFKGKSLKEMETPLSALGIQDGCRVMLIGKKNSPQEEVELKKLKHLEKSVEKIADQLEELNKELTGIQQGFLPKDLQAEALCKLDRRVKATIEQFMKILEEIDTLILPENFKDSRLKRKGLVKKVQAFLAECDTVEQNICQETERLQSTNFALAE
structure (smiles),measurement,setting,value
Nc1ncnc2c1nc(NCc1ccc3ncccc3c1)n2[C@@H]1O[C@H](CO)[C@@H](O)[C@H]1O [compound 12],IC50,HSP72 [1]; [3],2000 nM
same,change in affinity for HSP72/BAG1 complex compared to primary protein,HSP72/BAG1 complex,no significant change
same,IC50,HSP72/BAG1 complex; [4],2000 nM
Nc1ncnc2c1ncn2[C@@H]1O[C@H](COP(=O)(O)OP(=O)(O)OP(=O)(O)O)[C@@H](O)[C@H]1O [ATP],IC50,HSP72 [1]; [3],650 nM
same,IC50,HSP72/BAG1 complex; [4],> 10000 nM
O=C(NCCCCCCNc1ncnc2c1nc(NCc1ccc3ncccc3c1)n2[C@@H]1O[C@H](COCc2ccc(C(F)(F)F)cc2)[C@@H](O)[C@H]1O)c1ccc(C(=O)O)c(-c2c3ccc(=O)cc-3oc3cc(O)ccc23)c1 [compound 10],Z',HSP72 [2]; FP assay with HSP72,0.36
same,assay (binding) window,HSP72 [2]; presence vs absence of 5 μM HSP72,~30 mP
Nc1ncnc2c1nc(NCc1ccc3ncccc3c1)n2[C@@H]1O[C@H](COCc2ccc(C(F)(F)F)cc2)[C@@H](O)[C@H]1O [compound 2],IC50,"HSP72 [1]; competition with FP-probe 11, HSP72, n = 3, read-out: pIC50 (converted)",135 nM
same,IC50,"HSP72 [1]; competition with FP-probe 11, HSP72, read-out: IC50",137 nM
same,Kd,HSP72-NBD,60 nM
Nc1ncnc2c1ncn2[C@@H]1O[C@H](COP(=O)(O)OP(=O)(O)O)[C@@H](O)[C@H]1O [ADP],IC50,HSP72 [1]; [3],330 nM
same,IC50,HSP72/BAG1 complex; [4],2200 nM
same,pIC50,"HSP72/BAG1 complex; 700 nM BAG1, n = 3",5.66 ± 0.04
same,decrease in affinity for the secondary complex compared to primary HSP72,HSP72/BAG1 complex; 700 nM BAG1 vs without BAG1,6.8 fold
"NC(=O)c1cn([C@@H]2O[C@H](CO)[C@@H](O)[C@H]2O)c2ncnc(N)c12 [compound 13, sangivamycin]",IC50,HSP72 [1],2400 nM
same,IC50,HSP72/BAG1 complex,1000 nM
same,change in affinity for HSP72/BAG1 complex compared to primary protein,HSP72/BAG1 complex,no significant change
